Reference: patent US20240398781A1, “SPIROCYCLIC CYCLIC MODULATORS OF CHOLESTEROL BIOSYNTHESIS AND THEIR USE FOR PROMOTING REMYELINATION” (GENENTECH, INC., priority 2021, published 2024)
Like-named read-outs stand apart in the source and are kept apart here.

What was measured:
[1] = biological target: human emopamil binding protein and human 7-dehydrocholesterol reductase co-expressing cells (hEBP-DHCR7 membrane) (Homo sapiens (Human), UniProt Q15125); experiment: Radioligand filter binding assay on hEBP-DHCR7 membrane; settings: [3H]-(S)-6-(2-Methyl-3-(6-(trifluoromethyl)pyridin-3-yl)propyl)-2-thia-6-azaspiro[3.4]octane 2,2-dioxide radioligand, HEK293 membrane co-expressing hEBP and hDHCR7
Chain of human emopamil binding protein and human 7-dehydrocholesterol reductase co-expressing cells (hEBP-DHCR7 membrane) (Q15125 whole entry): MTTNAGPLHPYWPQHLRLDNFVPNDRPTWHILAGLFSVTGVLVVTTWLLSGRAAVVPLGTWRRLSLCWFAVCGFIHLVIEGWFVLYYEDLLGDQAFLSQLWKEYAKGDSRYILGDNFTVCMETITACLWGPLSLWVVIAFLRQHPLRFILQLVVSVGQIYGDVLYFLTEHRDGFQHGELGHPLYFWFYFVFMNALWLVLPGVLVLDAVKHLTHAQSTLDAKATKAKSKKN
Procedure, shortened: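 HEK293 cells transiently co-expressing human EBP and DHCR7 supplied whole-cell membranes (10 μg/well), incubated 3 h at 22 °C with [3H]-labelled spiro-octane dioxide ligand (added at 25 nM) and compound (0.06-5000 nM final, 8 doses, n=2). Bound ligand was collected on PEI-treated GF/B filters and counted by scintillation. IC50 was Hill-fitted from % inhibition and reported as Ki.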

[2] = system: EBP (zymostenol accumulation in EpiSC-derived OPCs); experiment: GC/MS-based sterol profiling, zymostenol accumulation in OPCs; type: cell-based, mouse; settings: read-out: Zymostenol GCMS EC50
Procedure, shortened: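 EpiSC-derived OPCs (100,000/well) were treated 24 h in N2B27 without growth factors. Sterols were TMS-derivatized and analysed by GC/MS full-scan EI, quantified against cholesterol-d7. Zymostenol was normalized to the level after 24 h with 100 nM positive control reference.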

[3] = Mus musculus, 24 h, EpiSC-derived OPCs, 24 hr treatment, 8 doses from 0.15 nM to 333 nM
[4] = EpiSC-derived OPCs, 24 hr treatment, 8 doses from 0.15 nM to 333 nM

Compound | Ki [1] [nM] | EC50 [2, 3] [nM] | EC50 [2, 4] [nM] | EC50 ([2]; Mus musculus, 24 h) [nM]
O=S1(=O)CC2(CCN([C@H]3CCN(c4ccc(C(F)(F)F)nc4)C3)C2)C1 (single isomer, unassigned) [9A*] | 58.3 | 10 |  | 
O=S1(=O)CC2(CCN([C@@H]3CCN(c4ccc(C(F)(F)F)nc4)C3)C2)C1 (single isomer, unassigned) [9B*] | 245 | 394 |  | 
CC(C)n1nc(-c2cncc(C(F)(F)F)c2)cc1[C@H]1CC[C@@H](N2CCC3(C2)CS(=O)(=O)C3)C1 (single isomer, unassigned) [13A*] | 6.9 | 0.91 |  | 
CC(C)n1nc(-c2cncc(C(F)(F)F)c2)cc1[C@@H]1CC[C@H](N2CCC3(C2)CS(=O)(=O)C3)C1 (single isomer, unassigned) [13B*] | 15 | 0.9 |  | 
CC(C)n1nc(-c2cncc(C(F)(F)F)c2)cc1[C@@H]1CC[C@@H](N2CCC3(C2)CS(=O)(=O)C3)C1 (single isomer, unassigned) [13C*] | 23.5 | 4.1 |  | 
CC(C)n1nc(-c2cncc(C(F)(F)F)c2)cc1[C@H]1CC[C@H](N2CCC3(C2)CS(=O)(=O)C3)C1 (single isomer, unassigned) [13D*] | 19 | 1.2 |  | 
CC(C)n1nc(-c2ccc(C(F)(F)F)nc2)nc1[C@H]1CC[C@H](N2CCC3(C2)CS(=O)(=O)C3)C1 (single isomer, unassigned) [17B*] | 36 | 4 |  | 
CC(C)n1nc(-c2ccc(C(F)(F)F)nc2)nc1[C@H]1CC[C@@H](N2CCC3(C2)CS(=O)(=O)C3)C1 (single isomer, unassigned) [17D*] | 64 | 3.5 |  | 
CC(C)n1nc(C2CC2)nc1[C@@H]1CC[C@H](N2CCC3(C2)CS(=O)(=O)C3)C1 (single isomer, unassigned) [18A*] | 960 |  |  | 72
CC(C)n1nc(C2CC2)nc1[C@H]1CC[C@H](N2CCC3(C2)CS(=O)(=O)C3)C1 (single isomer, unassigned) [18B*, 6-(3-(3-cyclopropyl-1-isopropyl-1H-1,2,4-triazol-5-yl)cyclopentyl)-2-thia-6-azaspiro[3.4]octane 2,2-dioxide] | 650 | 200 |  | 
CC(C)n1nc(C2CC2)nc1[C@@H]1CC[C@@H](N2CCC3(C2)CS(=O)(=O)C3)C1 (single isomer, unassigned) [18C*] | 811 | 54 |  | 
CC(C)n1nc(C2CC2)nc1[C@H]1CC[C@@H](N2CCC3(C2)CS(=O)(=O)C3)C1 (single isomer, unassigned) [18D*, 6-(3-(3-cyclopropyl-1-isopropyl-1H-1,2,4-triazol-5-yl)cyclopentyl)-2-thia-6-azaspiro[3.4]octane 2,2-dioxide] | 1180 | 120 |  | 
CC(C)n1cc(C(F)(F)F)nc1[C@H]1CC[C@H](N2CCC3(C2)CS(=O)(=O)C3)C1 (single isomer, unassigned) [20A*] | 530 | 240 |  | 
CC(C)n1cc(C(F)(F)F)nc1[C@@H]1CC[C@@H](N2CCC3(C2)CS(=O)(=O)C3)C1 (single isomer, unassigned) [20B*] | 130 |  |  | 19
O=S1(=O)CC2(CCN([C@@H]3CCCN(c4ccc(C(F)(F)F)cc4)C3)C2)C1 (single isomer, unassigned) [22A*] | 14 | 2 |  | 
O=S1(=O)CC2(CCN([C@H]3CCCN(c4ccc(C(F)(F)F)cc4)C3)C2)C1 (single isomer, unassigned) [22B*] | 58 | 35 |  | 
O=S1(=O)CC2(CCN([C@H]3CO[C@@H](c4ccc(C(F)(F)F)cc4)C3)C2)C1 (stereo in doubt) [19A*, 6-((3R,5R)-5-(4-(Trifluoromethyl)phenyl)tetrahydrofuran-3-yl)-2-thia-6-azaspiro[3.4]octane 2,2-dioxide] | 21 | 23 |  | 
O=S1(=O)CC2(CCN([C@@H]3CO[C@@H](c4ccc(C(F)(F)F)cc4)C3)C2)C1 (stereo in doubt) [19B*, 6-((3S,5R)-5-(4-(trifluoromethyl)phenyl)tetrahydrofuran-3-yl)-2-thia-6-azaspiro[3.4]octane 2,2-dioxide] | 20 | 10 |  | 
O=S1(=O)CC2(CCN([C@@H]3CO[C@H](c4ccc(C(F)(F)F)cc4)C3)C2)C1 (stereo in doubt) [19C*, 6-((3S,5S)-5-(4-(Trifluoromethyl)phenyl)tetrahydrofuran-3-yl)-2-thia-6-azaspiro[3.4]octane 2,2-dioxide] | 18 | 110 |  | 
O=S1(=O)CC2(CCN([C@H]3CO[C@H](c4ccc(C(F)(F)F)cc4)C3)C2)C1 (stereo in doubt) [19D*, 6-((3R,5S)-5-(4-(trifluoromethyl)phenyl)tetrahydrofuran-3-yl)-2-thia-6-azaspiro[3.4]octane 2,2-dioxide] | 33 | 110 |  | 

Now from value to molecule, other results behind:

Ki [1] [nM] | EC50 [2, 3] [nM] | EC50 [2, 4] [nM] | Compound | EC50 ([2]; Mus musculus, 24 h) [nM]
18.7 | 2.8 |  | CC(C)n1nc(C(F)(F)F)cc1[C@H]1CC[C@H](N2CCC3(C2)CS(=O)(=O)C3)C1 (single isomer, unassigned) [10A*] | 
21.3 | 2.9 |  | CC(C)n1nc(C(F)(F)F)cc1[C@H]1CC[C@@H](N2CCC3(C2)CS(=O)(=O)C3)C1 (single isomer, unassigned) [10B*] | 
26.6 | 3 |  | CC(C)n1nc(C(F)(F)F)cc1[C@@H]1CC[C@H](N2CCC3(C2)CS(=O)(=O)C3)C1 (single isomer, unassigned) [10C*] | 
35 | 4.1 |  | O=S1(=O)CC2(CCN([C@@H]3CC[C@H](c4ccc(C(F)(F)F)nc4)C3)C2)C1 (single isomer, unassigned) [11C*] | 
40 | 44 |  | O=S1(=O)CC2(CCN(C3CC[C@H](c4ccc(C(F)(F)F)nc4)C3)C2)C1 (single isomer, unassigned) [11D*] | 
420 | 310 |  | CC(C)n1cc(C(F)(F)F)nc1[C@H]1CC[C@@H](N2CCC3(C2)CS(=O)(=O)C3)C1 (single isomer, unassigned) [20C*] | 
39 | 38 |  | CC(C)n1cc(C(F)(F)F)nc1[C@@H]1CC[C@H](N2CCC3(C2)CS(=O)(=O)C3)C1 (single isomer, unassigned) [20D*] | 
25 | 4 |  | Cn1nc(C(F)(F)F)cc1[C@H]1CC[C@H](N2CCC[C@@]3(CCS(=O)(=O)C3)C2)CC1 (single isomer, unassigned) [26A*] | 
12 | 38 |  | Cn1nc(C(F)(F)F)cc1[C@H]1CC[C@H](N2CCC[C@]3(CCS(=O)(=O)C3)C2)CC1 (single isomer, unassigned) [26B*] | 
260 | 26 |  | Cn1nc(C(F)(F)F)cc1[C@H]1CC[C@H](N2CC[C@@]3(CCS(=O)(=O)C3)C2)CC1 (single isomer, unassigned) [27A*] | 
180 | 22 |  | Cn1nc(C(F)(F)F)cc1[C@H]1CC[C@H](N2CC[C@]3(CCS(=O)(=O)C3)C2)CC1 (single isomer, unassigned) [27B*] | 
82 | 49 |  | Cn1nc(C(F)(F)F)cc1[C@H]1CC[C@@H](N2CC[C@]3(CCS(=O)(=O)C3)C2)CC1 (single isomer, unassigned) [38A*] | 
50 | 60 |  | Cn1nc(C(F)(F)F)cc1[C@H]1CC[C@@H](N2CC[C@@]3(CCS(=O)(=O)C3)C2)CC1 (single isomer, unassigned) [38B*] | 
260 |  | 20 | Cn1nc(C(F)(F)F)cc1[C@H]1CC[C@H](N2CC[C@]3(CCS(=O)(=O)C3)C2)CC1 (single isomer, unassigned) [38C*] | 
80 |  | 40 | Cn1nc(C(F)(F)F)cc1[C@H]1CC[C@H](N2CC[C@@]3(CCS(=O)(=O)C3)C2)CC1 (single isomer, unassigned) [38D*] | 
37.8 | 30 |  | O=S1(=O)CC2(CCN([C@H]3CC[C@@H](c4ccc(C(F)(F)F)nc4)C3)C2)C1 (single isomer, unassigned) [Compound 11A, (Cis)-6-(3-(6-(Trifluoromethyl)pyridin-3-yl)cyclopentyl)-2-thia-6-azaspiro[3.4]octane 2,2-dioxide] | 
35.9 | 7.3 |  | O=S1(=O)CC2(CCN([C@@H]3CC[C@@H](c4ccc(C(F)(F)F)nc4)C3)C2)C1 (single isomer, unassigned) [Compound 11B, (Trans)-6-(3-(6-(Trifluoromethyl)pyridin-3-yl)cyclopentyl)-2-thia-6-azaspiro[3.4]octane 2,2-dioxide] | 
61 | 8.6 |  | CCn1nc(-c2ccc(C(F)(F)F)nc2)nc1[C@H]1CC[C@H](N2CCC3(C2)CS(=O)(=O)C3)CC1 [36A*, 6-((1r,4r)-4-(1-Ethyl-3-(6-(trifluoromethyl)pyridin-3-yl)-1H-1,2,4-triazol-5-yl)cyclohexyl)-2-thia-6-azaspiro[3.4]octane 2,2-dioxide] | 
260 | 23 |  | CCn1nc(-c2ccc(C(F)(F)F)nc2)nc1[C@H]1CC[C@@H](N2CCC3(C2)CS(=O)(=O)C3)CC1 [36B*, 6-((1s,4s)-4-(1-ethyl-3-(6-(trifluoromethyl)pyridin-3-yl)-1H-1,2,4-triazol-5-yl)cyclohexyl)-2-thia-6-azaspiro[3.4]octane 2,2-dioxide] | 
